# Measured values published in patent US20260317324A1, “BIFUNCTIONAL COMPOUNDS FOR DEGRADING BRAF VIA UBIQUITIN PROTEOSOME PATHWAY” (Nurix Therapeutics, Inc., priority 2023, published 2026).
# Molecular target: T1, BRAF V600E (Homo sapiens, UniProt P15056, V600E)
# T1 construct: endogenous C-terminal HiBiT fusion tag on BRAF V600E allele; endogenous in cells; host or cells: A375 clone 1F10 (CRISPR-Cas9 knock-in of the HiBiT tag; parental A375 from ATCC)
# Assay: BRAF HiBiT degradation assay, C-terminal HiBiT-tagged BRAF V600E A375 cells (clone 1F10), Nano-Glo HiBiT Lytic assay
# Format: cell-based
# Settings: A375 (BRAF V600E); for DC50: DC50 at 50%: fitted conc. at Y=50; for Dmax: A-375, percentage protein degraded at maximal compound effect relative to DMSO
# How it was run: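 A375 cells with CRISPR knock-in C-terminal HiBiT on endogenous BRAF V600E (clone 1F10) were seeded and cultured 24 h at 37 °C, then dosed with an 11-point half-log series (1 μM to 0.01 nM, duplicate, 0.2% DMSO). Lytic HiBiT luminescence gave % protein remaining; DC50 was the fitted concentration at 50%.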
# T1 sequence (P15056 whole entry V600E, the tested form may be a part): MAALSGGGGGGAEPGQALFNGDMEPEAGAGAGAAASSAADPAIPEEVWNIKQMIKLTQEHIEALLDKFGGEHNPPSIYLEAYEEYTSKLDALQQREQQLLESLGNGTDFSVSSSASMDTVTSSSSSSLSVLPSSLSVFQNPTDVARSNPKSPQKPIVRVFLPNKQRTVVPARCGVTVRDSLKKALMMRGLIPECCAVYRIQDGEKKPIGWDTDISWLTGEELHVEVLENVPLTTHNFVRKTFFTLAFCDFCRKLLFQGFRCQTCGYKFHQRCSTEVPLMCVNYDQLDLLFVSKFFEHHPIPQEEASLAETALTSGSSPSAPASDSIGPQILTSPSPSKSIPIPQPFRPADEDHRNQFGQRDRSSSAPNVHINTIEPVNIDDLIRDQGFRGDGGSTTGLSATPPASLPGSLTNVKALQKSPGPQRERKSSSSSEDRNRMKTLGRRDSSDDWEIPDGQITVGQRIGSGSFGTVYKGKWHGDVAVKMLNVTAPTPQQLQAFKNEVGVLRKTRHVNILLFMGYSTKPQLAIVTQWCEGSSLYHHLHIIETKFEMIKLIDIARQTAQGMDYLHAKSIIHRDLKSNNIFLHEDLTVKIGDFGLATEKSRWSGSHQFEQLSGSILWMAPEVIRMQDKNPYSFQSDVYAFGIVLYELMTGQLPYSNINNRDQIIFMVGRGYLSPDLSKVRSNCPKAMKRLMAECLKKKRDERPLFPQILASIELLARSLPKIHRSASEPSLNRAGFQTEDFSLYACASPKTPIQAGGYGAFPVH
SMILES,DC50 [nM],Dmax [%]
"CCCS(=O)(=O)Nc1cccc(-c2nc(C(C)(C)C)sc2-c2ccnc(Nc3ccc(C4CCN(C[C@H]5CC[C@H](Oc6ccc(C7CCC(=O)NC7=O)cn6)CC5)CC4)cc3)n2)c1F (mixture of isomers) [Compound 168, N-{3-[2-tert-butyl-5-(2-{[4-(1-{[(1r,4r)-4-({5-[(3RS)-2,6-dioxopiperidin-3-yl]pyridin-2-yl}oxy)cyclohexyl]methyl}piperidin-4-yl)phenyl]amino}pyrimidin-4-yl)-1,3-thiazol-4-yl]-2-fluorophenyl}propane-1-sulfonamide]",10 to 50,> 70
"CCCS(=O)(=O)Nc1cccc(-c2nc(C(C)(C)C)sc2-c2ccnc(Nc3ccc(C4CCN(CC5CCN(c6ccc(C(=O)NC7CCC(=O)NC7=O)nc6)CC5)CC4)cc3)n2)c1F (racemic) [Compound 169, Rac-5-{4-[(4-{4-[(4-{2-tert-butyl-4-[2-fluoro-3-(propane-1-sulfonamido)phenyl]-1,3-thiazol-5-yl}pyrimidin-2-yl)amino]phenyl}piperidin-1-yl)methyl]piperidin-1-yl}-N-[(3R)-2,6-dioxopiperidin-3-yl]pyridine-2-carboxamide]",50 to 500,30 to 70
"CCCS(=O)(=O)Nc1cccc(-c2nc(C(C)(C)C)sc2-c2ccnc(Nc3ccc(C4CCN(C(=O)C5CCN(CC6CCN(c7ccc(C8CCC(=O)NC8=O)cn7)CC6)CC5)CC4)cc3)n2)c1F (racemic) [Compound 175, Rac-N-{3-[2-tert-butyl-5-(2-{[4-(1-{1-[(1-{5-[(3R)-2,6-dioxopiperidin-3-yl]pyridin-2-yl}piperidin-4-yl)methyl]piperidine-4-carbonyl}piperidin-4-yl)phenyl]amino}pyrimidin-4-yl)-1,3-thiazol-4-yl]-2-fluorophenyl}propane-1-sulfonamide]",10 to 50,30 to 70
"CCCS(=O)(=O)Nc1cccc(-c2nc(C(C)(C)C)sc2-c2ccnc(Nc3ccc(C4CCN(C(=O)COc5ccc6c(c5)C(=O)N(C5CCC(=O)NC5=O)C6=O)CC4)cc3)n2)c1F (racemic) [Compound 176, Rac-N-[3-(2-tert-butyl-5-{2-[(4-{1-[2-({2-[(3R)-2,6-dioxopiperidin-3-yl]-1,3-dioxo-2,3-dihydro-1H-isoindol-5-yl}oxy)acetyl]piperidin-4-yl}phenyl)amino]pyrimidin-4-yl}-1,3-thiazol-4-yl)-2-fluorophenyl]propane-1-sulfonamide]",10 to 50,30 to 70
"CCCS(=O)(=O)Nc1cccc(-c2nc(C3CCN(C(=O)C4(C)CCN(C(=O)C5CCN(c6ccc(C7CCC(=O)NC7=O)cc6)CC5)CC4)CC3)sc2-c2ccncn2)c1F (racemic) [Compound 178, Rac-N-[3-(2-{1-[1-(1-{4-[(3R)-2,6-dioxopiperidin-3-yl]phenyl}piperidine-4-carbonyl)-4-methylpiperidine-4-carbonyl]piperidin-4-yl}-5-(pyrimidin-4-yl)-1,3-thiazol-4-yl)-2-fluorophenyl]propane-1-sulfonamide]",< 10,> 70
"CCCS(=O)(=O)Nc1cccc(-c2nc(C3CCN(C(=O)C4(C)CCN(C(=O)C5CCN(c6ccc(C7CCC(=O)NC7=O)cn6)CC5)CC4)CC3)sc2-c2ccncc2)c1F (racemic) [Compound 182, Rac-N-[3-(2-{1-[1-(1-{5-[(3R)-2,6-dioxopiperidin-3-yl]pyridin-2-yl}piperidine-4-carbonyl)-4-methylpiperidine-4-carbonyl]piperidin-4-yl}-5-(pyridin-4-yl)-1,3-thiazol-4-yl)-2-fluorophenyl]propane-1-sulfonamide]",< 10,> 70
"CCCS(=O)(=O)Nc1cccc(-c2nc(C3CCN(C(=O)C4CCN(C(=O)CC5CCN(c6ccc(NC7CCC(=O)NC7=O)cc6)CC5)CC4)CC3)sc2-c2ccncn2)c1F (racemic) [Compound 184, Rac-N-(3-{2-[1-(1-{2-[1-(4-{[(3R)-2,6-dioxopiperidin-3-yl]amino}phenyl)piperidin-4-yl]acetyl}piperidine-4-carbonyl)piperidin-4-yl]-5-(pyrimidin-4-yl)-1,3-thiazol-4-yl}-2-fluorophenyl)propane-1-sulfonamide]",< 10,> 70
"CCCS(=O)(=O)Nc1cccc(-c2nc(-c3ccc(C4CCN(C(=O)CC5CCN(c6ccc(NC7CCC(=O)NC7=O)cc6)CC5)CC4)cc3)sc2-c2ccnc(N)n2)c1F (racemic) [Compound 185, Rac-N-{3-[5-(2-aminopyrimidin-4-yl)-2-[4-(1-{2-[1-(4-{[(3R)-2,6-dioxopiperidin-3-yl]amino}phenyl)piperidin-4-yl]acetyl}piperidin-4-yl)phenyl]-1,3-thiazol-4-yl]-2-fluorophenyl}propane-1-sulfonamide]",10 to 50,30 to 70
"CCCS(=O)(=O)Nc1cccc(-c2nc(-c3ccc(N4CCN(C(=O)C5CCN(c6ccc(C7CCC(=O)NC7=O)cn6)CC5)CC4)cc3)sc2-c2ccnc(N)n2)c1F (racemic) [Compound 188, Rac-N-{3-[5-(2-aminopyrimidin-4-yl)-2-{4-[4-(1-{5-[(3R)-2,6-dioxopiperidin-3-yl]pyridin-2-yl}piperidine-4-carbonyl)piperazin-1-yl]phenyl}-1,3-thiazol-4-yl]-2-fluorophenyl}propane-1-sulfonamide]",< 10,> 70
"CCCS(=O)(=O)Nc1cccc(-c2nc(-c3ccc(N4CCN(C(=O)CC5CCN(c6ccc(C7CCC(=O)NC7=O)cn6)CC5)CC4)cc3)sc2-c2ccnc(N)n2)c1F (racemic) [Compound 189, Rac-N-{3-[5-(2-aminopyrimidin-4-yl)-2-(4-{4-[2-(1-{5-[(3R)-2,6-dioxopiperidin-3-yl]pyridin-2-yl}piperidin-4-yl)acetyl]piperazin-1-yl}phenyl)-1,3-thiazol-4-yl]-2-fluorophenyl}propane-1-sulfonamide]",< 10,> 70
"CCCS(=O)(=O)Nc1cccc(-c2nc(-c3ccc(N4CCN(C(=O)C5CCN(c6ccc(C7CCC(=O)NC7=O)cc6)CC5)CC4)cc3)sc2-c2ccnc(N)n2)c1F (racemic) [Compound 190, Rac-N-{3-[5-(2-aminopyrimidin-4-yl)-2-{4-[4-(1-{4-[(3R)-2,6-dioxopiperidin-3-yl]phenyl}piperidine-4-carbonyl)piperazin-1-yl]phenyl}-1,3-thiazol-4-yl]-2-fluorophenyl}propane-1-sulfonamide]",10 to 50,30 to 70
"CCCS(=O)(=O)Nc1cccc(-c2nc(C3CCN(C(=O)C4(C)CCN(C(=O)C5CCN(c6ccc(C7CCC(=O)NC7=O)cc6)CC5)CC4)CC3)sc2-c2ccnc(N)n2)c1F (racemic) [Compound 196, Rac-N-{3-[5-(2-aminopyrimidin-4-yl)-2-{1-[1-(1-{4-[(3R)-2,6-dioxopiperidin-3-yl]phenyl}piperidine-4-carbonyl)-4-methylpiperidine-4-carbonyl]piperidin-4-yl}-1,3-thiazol-4-yl]-2-fluorophenyl}propane-1-sulfonamide]",< 10,> 70
"CCCS(=O)(=O)Nc1cccc(-c2nc(C3CCN(C(=O)C4CCN(C(=O)C5CCN(c6ccc(C7CCC(=O)NC7=O)cc6)CC5)CC4)CC3)sc2-c2ccncn2)c1F (racemic) [Compound 199, Rac-N-[3-(2-{1-[1-(1-{4-[(3R)-2,6-dioxopiperidin-3-yl]phenyl}piperidine-4-carbonyl)piperidine-4-carbonyl]piperidin-4-yl}-5-(pyrimidin-4-yl)-1,3-thiazol-4-yl)-2-fluorophenyl]propane-1-sulfonamide]",< 10,> 70
